Publication PMC11904948, “Peptide‐Drug Conjugate for Therapeutic Reprogramming of Tumor‐Associated Macrophages in Breast Cancer” (Advanced Science, 2025)

Test system: orthotopic 4T1.2 tumors
Experiment: MACTIDE-V monotherapy in orthotopic 4T1.2
Format: in vivo, Balb/c mice
Description: We evaluated the effect of MACTIDE‐V on tumor progression and metastasis in the highly metastatic orthotopic 4T1.2 model.^[ [33] ^] When tumors reached 55 mm^3 we began the treatment with MACTIDE‐V or CtrlPep‐V every other day until day 23, using the same dose used in section 5. […] No body weight loss was detected in any of the groups (Figure S7, Supporting Information).
Figure 7 MACTIDE‐V slows tumor growth and suppresses lung metastasis in orthotopic 4T1.2. 4T1.2 bearing mice were treated with 9 doses of CtrlPep‐V, MACTIDE‐V (1 mg Kg^−1 in Verteporfin per dose), or PBS i.p. every other day, while monitoring the primary tumor volume (A). Mice were sacrificed on day 25, tumor weights were measured (B) and pulmonary metastasis areas were quantified from H&E sections (C). D–G) Tumor cell suspensions were analyzed by flow cytometry (n = 4 per group). H) Representative mIHC images of PBS, CtrlPep‐V, and MACTIDE‐V treated tumors, scale bar = 100 µm. I) CD8^+ T cells, CD4^+ T cells, and Treg density obtained from mIHC images (n = 6 mice/group), with every dot representing the mean cell density of each tumor obtained from 20 images. Median ± interquartile range. One‐way ANOVA with multiple comparisons, ^* p ≤ 0.05, ^** p ≤ 0.01.
5×10^5 4T1.2 cells in 50 µL of PBS was injected subcutaneously to 4th mammary fat pad. On day 7, mice were sorted into groups based on tumor volume, ≈55—60 mm^3 calculated based on the formula shown above. Mice were treated every other day with 500 µL of MACTIDE‐V, CtrlPep‐V (30 nmol), and PBS, 9 injections in total, n = 10 mice/group. The cumulative Verteporfin dose was 9 mg kg^−1. The last injection was on day 23. Four mice from each group were sacrificed on day 25 through anesthetic overdose and their tumors were analyzed by flow cytometry (FC) and mIHC. The rest of the mice were left to continue in the study with the initial intention of performing a survival study, however, all of these mice were sacrificed within 5 days based on their tumor size (above 1500 mm^3) or cachexia.
For FC, mice were not perfused, the tumors were cut into small pieces, digested using 10 mL of collagenase IV (200 U mL^−1, Gibco, catalog no.17104019), dispase (0.6 U mL^−1, Gibco, catalog no. 17105‐041) and DNase I (15 U mL^−1, AppliChem, catalog no. A3778) mixture on a rotating platform for up to 60 min at 37 °C, pipetting every 10 min. Red blood cells were lysed using 3 mL of ammonium‐chloride‐potassium lysis buffer. After that, cells were centrifuged (350×g, 7 min, +4 °C), filtered (100 µm cell strainer, Falcon, catalog no. 352360), and counted using the bright‐field mode of LUNA Automated Cell counter (Logos Biosystems). Cells were seeded at a concentration of 5×10^6 cells/100 µL of running buffer (RB) (1L of RB: 4 mL 0.5M EDTA + 100 mL FBS + the rest PBS) on the 96‐well conical bottom plate and incubated for 15 min in dark at RT in 50 µL of Zombie NIR Fixable Viability Kit (BioLegend). After that, 30 µL of blocking antibody (TruStain FcX, Biolegend) was added and incubated for 10 min in the dark at +4 °C. Then, to stain macrophages, 20 µL of antibody mixture was added, and incubated for 25 min in the dark at +4 °C after which 50 µL of RB was added, centrifuged, washed two times with 150 µL of RB, and taken up in 150 µL of RB. For intracellular staining, cells were fixed and permeabilized using the eBioscience Foxp3/Transcription Factor Staining Buffer Set (Thermofisher). Cells were then stained with 100 µL of antibody mixture and incubated for 40 min in the dark at RT. Cells were centrifuged, washed twice with 150 µL of RB, and resuspended in 150 µL of RB. Samples were analyzed using the SONY ID7000 spectral flow cytometer and the accompanying software (Table 4 ).
To determine the pulmonary metastatic area, lungs from MACTIDE‐V monotherapy were stained for hematoxylin and eosin according to the following protocol. […]

[1] = tumor flow cytometry, n = 4 per group

With “Vert‐Ahx‐G(CTKSIPPIC)SPGAK‐OH (disulfide) [MACTIDE‐V]” the primary tumor volume (9 doses i.p. every other day, 30 nmol (1 mg Kg^−1 in Verteporfin per dose), 4 weeks after tumor induction, versus CtrlPep‐V and PBS) was “significantly smaller tumor volumes”, the pulmonary metastasis (9 doses i.p. every other day, 1 mg Kg^−1 in Verteporfin per dose, area from H&E sections) was “fewer pulmonary metastasis” and the endpoint tumor weights (9 doses i.p. every other day, 1 mg Kg^−1 in Verteporfin per dose, sacrifice day 25) was “smaller endpoint tumor weights”. For the same substance, the “CD4^+ T cell density (mIHC)” value (compared to CtrlPep‐V and PBS, n = 6 mice/group) was “significant increase in CD4^+ T cell density”, the “Treg density (mIHC)” value (n = 6 mice/group) was “no differences in Treg density” and the “MHC II^−CD206^+ subset of TAM/monocytes” value [1] was “decreased”. The “PD‐1 expression in CD8^+ and CD4^+ T cells” value [1] was “decrease in PD‐1 expression”, the “percentage of MHCII^+CD206^+ TAM/monocytes” value [1] was “increased” and the “tumor‐infiltrating B cells” value [1] was “no change”. For the same substance, the “proportion of tumor‐infiltrating T cells and NK cells” value (tumor flow cytometry, with respect to CtrlPep‐V and PBS, n = 4 per group) was “rise in the proportion”.
